Assay results: publication PMC10337138 (Acta Neuropathologica Communications, 2023)

Tests used:
BRK/PTK6 = BRK/PTK6 (Homo sapiens, UniProt Q13882); assay: AssayQuant Sox-peptide kinase panel, […] compound, […] ATP; […] inhibition; assay type: biochemical
BLK = BLK (Homo sapiens, UniProt P51451); assay: as above; assay type: biochemical
Sequence of BLK (P51451 2-505): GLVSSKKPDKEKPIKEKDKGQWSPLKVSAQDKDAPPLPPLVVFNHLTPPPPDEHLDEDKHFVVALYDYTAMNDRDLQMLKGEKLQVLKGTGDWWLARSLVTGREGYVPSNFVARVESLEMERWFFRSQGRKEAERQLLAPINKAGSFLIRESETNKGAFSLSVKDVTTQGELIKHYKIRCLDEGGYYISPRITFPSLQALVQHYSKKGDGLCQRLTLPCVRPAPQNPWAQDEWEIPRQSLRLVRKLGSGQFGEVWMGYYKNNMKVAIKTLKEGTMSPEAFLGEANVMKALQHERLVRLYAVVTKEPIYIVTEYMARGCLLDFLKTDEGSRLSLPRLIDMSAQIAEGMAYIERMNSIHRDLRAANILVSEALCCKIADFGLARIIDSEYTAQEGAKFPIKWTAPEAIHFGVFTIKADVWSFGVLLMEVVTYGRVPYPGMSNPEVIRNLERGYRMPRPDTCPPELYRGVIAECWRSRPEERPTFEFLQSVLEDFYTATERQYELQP

Sequence of BRK/PTK6 (Q13882 whole entry): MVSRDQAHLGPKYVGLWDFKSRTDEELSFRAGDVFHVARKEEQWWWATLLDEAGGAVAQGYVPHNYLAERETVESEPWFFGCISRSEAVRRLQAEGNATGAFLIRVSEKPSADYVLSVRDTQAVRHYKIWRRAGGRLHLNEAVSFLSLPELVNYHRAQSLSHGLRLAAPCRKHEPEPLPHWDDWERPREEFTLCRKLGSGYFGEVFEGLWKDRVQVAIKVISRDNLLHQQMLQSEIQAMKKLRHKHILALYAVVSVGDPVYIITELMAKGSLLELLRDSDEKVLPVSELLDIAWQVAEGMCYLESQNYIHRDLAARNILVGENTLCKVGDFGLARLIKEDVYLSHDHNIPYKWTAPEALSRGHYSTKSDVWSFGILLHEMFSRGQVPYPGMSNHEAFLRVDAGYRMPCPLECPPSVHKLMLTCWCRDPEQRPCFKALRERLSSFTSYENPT

% inhibition at 1 μM (BRK/PTK6): > 50
% inhibition at 1 μM (BLK): > 50
Substance: GB7208
